Target: Transthyretin (Homo sapiens) (UniProt P02766)
Assay: Stabilization of wild type human transthyretin expressed in Escherichia coli BL21(DE3) Star assessed as fibril formation at 50 uM pre-incubated with transthyretin before amyloid beta (1 to 42) addition by ThT fluorescence assay

Row | Activity | SMILES
1 | 24% | O=C(O)c1ccc2nc(-c3cc(Cl)cc(Cl)c3)oc2c1
2 | 26% | O=C(O)c1cc(-c2ccc(F)cc2F)ccc1O

From ChEMBL document CHEMBL4402575
